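Each compound was tested at five concentrations against cells in 96-well plates for 48 hours. TGI: total growth inhibition.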
Experiments:
Experiment in all cases: DTP human tumour cell line panel, 48 h
CCRF-CEM leukemia = test system: CCRF-CEM leukemia
DU-145 prostate = test system: DU-145 prostate
HCC-2998 colon = test system: HCC-2998 colon
HOP-92 NSCLC = test system: HOP-92 NSCLC
HT29 colon = test system: HT29 colon
IGROV1 ovarian = test system: IGROV1 ovarian
MDA-N = test system: MDA-N
NCI-H226 lung = test system: NCI-H226 lung
PC-3 prostate = test system: PC-3 prostate
SN12C renal = test system: SN12C renal
SNB-19 CNS = test system: SNB-19 CNS

Row | SMILES | TGI (CCRF-CEM leukemia) [µM] | TGI (DU-145 prostate) [µM] | TGI (HCC-2998 colon) [µM] | TGI (HOP-92 NSCLC) [µM] | TGI (HT29 colon) [µM] | TGI (IGROV1 ovarian) [µM] | TGI (MDA-N) [µM] | TGI (NCI-H226 lung) [µM] | TGI (PC-3 prostate) [µM] | TGI (SN12C renal) [µM] | TGI (SNB-19 CNS) [µM]
1 | CCCCCCc1cc2cc(C(=O)Nc3ccccc3)c(=N)oc2cc1O | > 37.9 | > 100 | 20.8 | > 100 | > 32.1 | > 100 | > 34.3 | > 100 | > 30.3 | 6.97 | > 73.8
2 | N#Cc1c(N)nc2n[nH]c(N)c2c1-c1ccc(Cl)cc1 | > 100 | > 71.8 | > 64.7 | 6.14 | > 58.6 | 7.39 | > 100 | > 100 | 16.7 | 51.6 | > 59.9
3 | CCOC1OC(=O)c2cc3ccc4c(c3c(-c3ccc5c(c3)OCO5)c21)OCO4 (stereo not drawn) | > 100 | > 100 | 20.3 | > 100 | > 100 | > 100 | 5.2 | > 74 | > 100 | > 100 | > 100
4 | CC1OC(OC2C(O)COC(OC3C(C)OC(OC4C(OC(=O)[C@]56CCC(C)(C)C[C@@H]5C5=CCC7[C@@]8(C)C[C@H](O)[C@H](OC9OC(CO)C(O)C(O)C9O)[C@@](C)(CO)[C@@H]8CC[C@@]7(C)[C@]5(C)CC6)OCC(O)C4O)C(O)C3OC3OCC(O)(CO)C3O)C2O)C(O)C(O)C1O (stereo partly drawn) | 44.7 | 30.3 | 14.7 | 50.3 | 37.4 | 31.1 | 32.5 | 43 | 28.6 | 16.4 | 29
5 | O=c1cnn(C/C=C/CO)c(=O)[nH]1 | > 100 | > 100 | > 100 | > 100 |  | > 100 | > 100 | > 100 | > 100 | > 100 | > 100
6 | O=[N+]([O-])c1ccc2c(c1)C1=C(CO2)Cc2ccccc2O1 | > 100 | > 100 | 35.3 | 81.5 | 88 | 55.4 | 33.1 | > 100 | 38.6 | 45.2 | 
7 | COc1ccc2cc(/C=N/NC(=O)Nc3ccccc3)ccc2c1 | > 100 | > 100 | > 100 | > 100 | > 100 | > 100 | > 100 | > 100 | > 100 | > 100 | > 100
8 | O=C(Oc1ccccn1)c1cc2cc(CCl)ccc2oc1=O | > 100 | > 100 | > 100 | 39.3 | > 100 | > 100 | > 100 | > 100 | 38.5 | 56.7 | 71.2
9 | CN=C(N=Nc1c(O)[nH]c2ccccc12)SCC(=O)c1ccc(Br)cc1 | 30.8 | 30.5 | 13.2 | > 52.4 | > 43.5 | > 100 | > 100 | 48.4 | 29.4 | > 48.7 | > 100
10 | NC(=O)C(C(N)=O)=C(O)C(=O)/C=C(\O)c1ccccc1 | 52.5 | > 100 | > 100 | > 100 | > 100 | > 100 | > 100 | > 100 | > 100 | > 100 | > 100
11 | Cn1c(=O)c2c(nc(Cc3ccccc3)n2CC(=O)O)n(C)c1=O | > 100 | > 100 | > 100 | > 100 | > 100 | > 100 | > 100 | > 100 | > 100 | > 100 | > 100
12 | O=[N+]([O-])/C(C(Cl)=C(Cl)Cl)=C(/Cl)Sc1ccccc1 | 0.435 | 11.2 | 5.7 | 3.85 | 6.12 | 4.69 | 3.78 | 24.3 | 4.66 | 3.55 | 36
13 | OC1C#CCSCC#C/C=C\1 (stereo not drawn) | 98.4 | > 100 | > 100 | > 100 | > 100 | > 100 | > 100 | > 100 | > 100 | > 100 | > 100
14 | CCOC(=O)CN1C(=O)c2ccc(NC(=O)C(=O)O)cc2S1(=O)=O | > 100 | > 100 | > 100 | > 100 | > 100 | > 100 | > 100 | > 100 | > 100 | > 100 | > 100
15 | CC(CO)(CO)N1C(=O)C2C3C=CC(C3)C2C1=O (stereo not drawn) | > 100 | > 100 | > 100 | > 100 | > 100 | > 100 | > 100 | > 100 | > 100 | > 100 | > 100
16 | COC(=O)c1ccccc1/C=C1\Cc2ccc(C)c(C)c2C1=O | > 100 | > 100 | > 100 | 92.5 | > 100 | > 100 | > 100 | > 100 | > 100 | > 100 | > 100
17 | CSc1ncnc2c1ncn2CCC(=O)OC(C)(C)C | > 100 | > 100 | > 100 | > 100 | > 100 | > 100 | > 100 | > 100 | > 100 | > 100 | > 100
18 | CCOC(=O)CC[C@H](NC(=O)[C@H](N)Cc1ccc(N(CCCl)CCCl)cc1)C(=O)OCC | > 49.6 | 43.9 | > 48.6 | 18.3 | > 78 | > 65.7 | > 50.8 | > 72 | > 75.1 | > 62.4 | > 96

Row | SMILES | TGI (CCRF-CEM leukemia) [µM] | TGI (DU-145 prostate) [µM] | TGI (HCC-2998 colon) [µM] | TGI (HOP-92 NSCLC) [µM] | TGI (HT29 colon) [µM] | TGI (IGROV1 ovarian) [µM] | TGI (MDA-N) [µM] | TGI (NCI-H226 lung) [µM] | TGI (PC-3 prostate) [µM] | TGI (SN12C renal) [µM] | TGI (SNB-19 CNS) [µM]
19 | O=C1C(c2c(O)[nH]c3ccc(F)cc23)=Nc2ccccc21 | > 100 | > 100 | > 100 | 65.6 | > 100 | > 100 | > 100 | > 100 | > 100 | > 100 | > 100
20 | Clc1ccc(C2C3COc4ccccc4C3=NN2c2ccccc2)cc1 (stereo not drawn) | > 37.7 | > 100 | > 100 | > 100 | > 100 | > 100 | > 67.4 | > 100 | > 100 | > 100 | > 93.5
21 | CN(C)CCCC12CCCCC1=Nc1ccccc12 (stereo not drawn) | > 100 | > 100 | > 100 | > 100 | > 100 | > 100 | > 100 | > 100 | > 100 | > 100 | > 100
22 | Cn1c(=O)c(-c2ccccc2)c(N=[N+]=[N-])c2ccccc21 | > 100 | > 100 | 47 | > 100 | 49.9 | > 100 | > 100 | > 100 | > 100 | > 100 | > 100
23 | Cc1cc2oc(=N)c(C#N)c(C)c2cc1C | > 100 | > 100 | > 100 | > 100 | > 100 | > 100 | > 100 | > 100 | > 100 | > 100 | > 100
24 | Cc1cc(S(=O)(=O)Nc2n[nH]c(N)n2)c(SCC(=O)O)cc1Cl | > 10 | > 10 | > 10 | > 10 | > 10 | > 10 | > 10 | > 10 | > 10 | > 10 | > 10
25 | COC(CNC(=O)C(C)NC(=O)/C=C/c1ccccc1)OC (stereo not drawn) | > 100 | > 100 |  | > 100 | > 100 | > 100 | > 100 | > 100 | > 100 | > 100 | > 100
26 | Cc1nc2c(nc1C)-c1[nH]c3c(c1C(=O)C2=O)CCCC3=O | 5.16 | 23.5 | 7.71 | 3.66 | 16.2 | 11.5 | 1.9 | 3.04 | 15.7 | 3.28 | 5.58
27 | Oc1[nH]c2ccccc2c1N=NC(=S)Nc1cccc(Cl)c1 | 31 | > 100 | > 100 | 70.3 | 28.4 | 89 | > 100 | 55.2 | > 100 | > 100 | > 100
28 | CCC(C)OC(=O)/C(Br)=C1/OC(=O)c2ccccc2-c2ccccc21 (stereo not drawn) | 52 | > 100 | 39.4 | 81.9 | 84.5 |  | > 100 | > 100 | > 100 | > 100 | > 100
29 | N#CCCN(C(=O)Nc1ccccc1)[C@H]1CCCC[C@@H]1N(C(=O)Nc1ccccc1)c1ccccc1 | > 100 | > 100 | > 100 | > 100 | > 100 | > 100 | > 100 | > 100 | > 100 | > 100 | > 100
30 | CCOC(=O)NC(Nc1ccc(S(=O)(=O)Nc2nc(C)cc(C)n2)cc1)(C(=O)OCC)C(F)(F)F (stereo not drawn) | > 100 | > 100 | > 100 | > 100 | > 100 | > 100 | > 100 | > 100 | > 100 | > 100 | > 100
31 | COc1ccc(P2(=S)OC(C)(C)C(C)(C)O2)cc1 | > 100 | > 100 |  | > 100 | > 100 | > 100 | > 100 | > 100 | > 100 | > 100 | > 100
32 | Fc1cc(-c2cc(-c3ccccc3)no2)c(Cl)cc1Cl | > 49.6 | > 48.6 | > 72 | 35.7 | > 46.7 | > 50.8 | > 68.9 | > 23.3 | > 50 | > 54.4 | > 62.5
33 | CC(=O)c1[nH]c(NCc2ccccc2)c(C(=S)Nc2ccccc2)c1N | > 100 | > 100 | 40.6 | 59.3 | > 100 | 14.1 | 39.1 | 40.2 | > 100 | 50.8 | > 100
34 | CCCCNC(=S)Nc1nc(C(=O)NNC(=S)Nc2ccccc2)cs1 | > 100 | > 100 | > 100 | 38.6 | > 100 |  | > 100 | > 100 | > 100 | > 100 | > 100
35 | CC#CCOC(=O)c1ccccc1OC(C)=O | > 100 | > 100 | > 100 | > 100 |  | > 100 | > 100 | > 100 | > 100 | > 100 | > 100
36 | COC(=O)C(Cc1c[nH]c2ccccc12)NP(=O)(O)OCC1OC(n2cc(I)c(=O)[nH]c2=O)CC1O (stereo not drawn) | > 100 | > 100 |  | > 100 | > 100 | > 100 | > 100 | > 100 | > 100 | > 100 | > 100

— PubChem BioAssay (NCI)
